We go through two molecules from patent US7700651B2, “Preparations of phospholipids and pharmaceuticals containing 5-amino salicylic acid for the treatment of inflammatory bowel disease” (The Board of Regents of the University of Texas System, priority 2006, dated 2010).

In data set [1] the test system is mice placed on 3% DSS in the drinking water to induce colitis. Put plainly: DSS-induced colitis in mice, test formulations given in the diet. The data set is classed as in vivo, C57BL/6 mice. As to conditions: 3% DSS for four days. As to the method: Phosal 35 SB, a soy lecithin oil containing approximately 35 wt. % phosphatidylcholine (PC), was placed in glass beaker to which 5ASA (or a 5ASA containing pharmaceutical) was added under moderate heat, about 40° C., and stirring until a 1:1 weight ratio was attained. The resulting oil-based formulation was coated with a pH-sensitive polymer, e.g., MultiSal™, or Eudragrit®-S, to form polymer encapsulated micro-spheres of the 5ASA/PC composition. These encapsulated micro-spheres are formed so that the 5ASA and PC are released only when the drug reaches the distal gut, where the pH is 7 or above and the polymer coating degrades. […]
Groups of C57BL/6 mice were exposed to different diets and their daily food consumption (grams/day) were measured over a four day period of time. […]
Now, the 5ASA:PL formulations can be compared to 5ASA in treating the colitis type disorder in mice. […] The efficacy of the treating compositions were determined by measuring colon tissue weight per length.
Groups of mice were placed on drinking water comprising saline containing 3% DSS for four days to induce a colitis type disorder and then treated with the compositions of this invention. The appearance of blood as indicated by an increased hemoglobin content in the feces was measured to determine the efficacy of 5ASA versus the 5ASA:PL formulations. […]

Data set [2] relates to rats with colitis induced by 4% dextran sodium sulfate (DSS) in drinking water. Put plainly: Recovery from DSS-induced colitis in rats, 5ASA 50 mg/kg BID intragastrically for 3 days. The data set is classed as in vivo, Sprague Dawley male rats. As to the method:
The following experiments were designed to compare the efficacy of 5ASA versus 5ASA:PC formulations in treating rats that had been subjected to colitis induced by adding 4% dextran sodium sulfate (DSS) to their drinking water for over 5 days (5 day, 20 hours) and then returned to normal drinking water. The rats were then treated with 5ASA, in this experiment at a lower dose (50 mg/kg, BID) than that previously studied, in the absence or presence to a PL component for 3 days post DSS induced colitis.
Thirty two healthy male rats used in the study. […] Group 1 were given drinking water without added DSS. Groups 2-4 received drinking water containing 4% DSS for 6 days. At day 6, Group 2 received 1 mL saline BID intra gastrically. Group 3 received 5ASA (50 mg/Kg) BID intra gastrically. Group 4 received 5ASA (50 mg/Kg):Phosal 35SB:MCT oil (1:1:0.3), referred to heretofore as 5ASA:PC BID intra gastrically, where MCT=Medium Chain Triglyceride.
At day 9, the rats were euthanized and the following were measured: (a) hematocrit, (b) fecal hemoglobin, (c) colon weight/length, (d) colon myeloperoxidase (MPO), (e) colonic surface hydrophobicity and (f) colon histology.
In this study, rats were placed on regular drinking water (Group 1) or water containing 4% DSS and then intragastrically administered: saline (Group 2); 5ASA (Group 3) at a dose of 50 mg/kg BID); or 5ASA:PC (P35SB at 1:1 wt ratio) (Group 4) for 3 days at which time the following changes were seen.

The test system is the same in data set [3]. The data set can be described thus: Recovery from DSS-induced colitis in rats, 5ASA 100 mg/kg b.i.d. intragastrically for 6 days. It is filed as in vivo, Sprague Dawley male rats. On the procedure: Rats were placed on drinking water containing 4% dextran sodium sulfate (DSS) for 5 days and 20 hours to induce colitis after which they were returned to normal drinking water. The animals were then intragastrically administered twice daily for 6 subsequent days with: (a) saline (DSS control); (b) 5ASA at a dose of 100 mg/kg; (c) a 1:1 wt. ratio of 5ASA and Phosal 35 SB (an oil-based formulation); or (d) a 1:2 wt. ratio of 5ASA and Phospholipon 90G (an aqueous lipidic suspension) at the same dose of 5ASA, 100 mg/kg, b.i.d. The formulations (c) and (d) are phosphatidylcholine (PC) associated 5ASA formulations, where the PC and 5ASA are associated at the molecular level. These treatments are designed to compare the efficacy of 5ASA and two different PC:5ASA formulations.
At 1, 3 and 6 days, rats were euthanized and colonic tissue, blood and fecal matter were collected for biochemical and histological analyses to assess colonic inflammation and GI bleeding. A separate group of rats were not placed on DSS and served as “normal controls.”
Referring now to FIG. 8, changes in hematocrit during the 6 day recovery period were measured from the euthanized rats. Changes in hematocrit levels represent an indirect estimate of anemia and internal (GI) bleeding among the groups over the 6 day recovery period.
Colonic inflammation and injury were assessed by measuring a number of biochemical and histological indices. First, tissue edema were assessed by measuring tissue wet weight/unit length.
Colonic myeloperoxidase (MPO) activity, a biochemical marker of neutrophil infiltration into the tissue, was measured as another marker of inflammation.
Tissue histology was scored (under blinded conditions) for signs of injury and inflammation. To assess inflammation we scored the number of inflammatory cells in the lamina propia of the colonic submucosa using a scoring system from 1 (normal) to 4 (highly inflamed).
To assess colonic mucosal injury, a histological scoring system was used, where: 0=normal mucosa; 1=surface injury; 2=injury extending into the mid glandular region; 3=injury extending into the deep glandular region; and 4=injury extending into the serosal (muscle) layer.

The subject of data set [4] is C57BL/6 mice. Put plainly: Induction of colitis in mice by increasing DSS concentrations in drinking water for 4 days. It is filed as in vivo. The settings on record: 0% to 4% DSS in drinking water, four days. The text has this:
Groups of four C57BL/6 mice were exposed to differing amount of dextran sodium sulfate (DSS) in their drinking water for a four day period of time. The mice were then euthanized and colon tissue weight per length measurements for each group of mice were made.
Groups of C57BL/6 mice were exposed to differing amount of dextran sodium sulfate (DSS) in their drinking water for a four day period of time. The mice fecal hemoglobin measurements were made at the end of the four day period.

For the molecule `Nc1ccc(O)c(C(=O)O)c1` [5ASA, 5-amino salicylic acid], the “colonic inflammation as colon tissue weight per length” value in data set [1] is given as “partial reversal”. Also, in data set [2] (50 mg/kg BID, 3 days post DSS), the “colon MPO activity (DSS-induced inflammation)” value was “partially”, the “colon weight/length (DSS-induced mucosal edema)” value is recorded as “partially reversed” and the “fecal hemoglobin (DSS-induced GI fecal blood loss)” value is “partially reversed”. In data set [2] (50 mg/kg twice daily intragastrically), the “overall recovery from DSS-induced colitis and GI bleeding (conclusion)” value was “promotes tissue recovery from DSS-induced colitis and reduces GI bleeding”. In addition, the “overall colonic inflammation and tissue injury / recovery from colitis (biochemical and histological markers, conclusions)” value in data set [3] (100 mg/kg b.i.d., 3 to 6 days post-DSS) was “significantly reduces colonic inflammation and tissue injury”. Also, the “number of inflammatory cells in lamina propia of colonic submucosa, score 1 (normal) to 4 (highly inflamed)” value in data set [3] (3 and 6 days, 100 mg/kg b.i.d.) is given as “reduced number of inflammatory cells”. Also, the “tissue edema (tissue wet weight/unit length)” value in data set [3] (3 days post-DSS, 100 mg/kg b.i.d., vs saline-treated controls) is “reduced by 5ASA (non significantly)”. The “colonic myeloperoxidase (MPO) activity” value in data set [3] (day 3, 100 mg/kg b.i.d.) is recorded as “reduction”. For the same molecule, the “fecal hemoglobin (fecal blood loss)” value in data set [3] (first day of the recovery period, 100 mg/kg b.i.d.) is recorded as “may have had a beneficial effect in reducing fecal blood loss”.
As to dextran sodium sulfate [DSS], in data set [4], the “colonic inflammation or edema as colon tissue weight per length” value was 3% DSS was shown to cause the greatest increase and the fecal hemoglobin entry is “increased fecal hemoglobin with increasing concentration”.
